This note sets out measurements from patent US20250296909A1, “NOVEL BENZENE DERIVATIVE AND IMMUNOSUPPRESSION-RELATED USE THEREOF” (PROVIBIO CO., LTD., priority 2021, published 2025).

One data set has as its system spleen T cells. In words: T cell proliferation inhibition (CFSE, FACS), CD3/CD28-activated spleen T cells. Type of data set: cell-based, C57BL/6 mice. As to conditions: for inhibition at 10 µM / inhibition at 30 µM / inhibition at 50 µM: Mus musculus, T-cell, read-out: Proliferation inhibition rate (%). On the procedure:
To investigate whether the compounds obtained in the Preparation Example have an inhibitory effect on T cell proliferation, the T cell proliferation was determined ex vivo using the fluorescent dye carboxyfluorescein diacetate succinimidyl ester (CFSE), which binds to intracellular molecules by covalent bonds.
Spleens were harvested and minced from C57BL/6 mice at 7 weeks of age, and then single cells were isolated using a strainer (40 μm pore size, SPL). Red blood cells were removed using ACK (Ammonium-Chloride-Potassium) lysis buffer to isolate only leukocytes. Subsequently, CD90.2 microbeads (130-121-278, Miltenyi Biotech.) were added, and subjected to react at 4° C. for 20 minutes. After that, spleen T cells were isolated using a MACS Magnetic Stand and LS column. The isolated T cells from the spleen were resuspended in 1 mL of Free media (RPMI-1640+200 U/mL penicillin+200 μg/mL streptomycin), followed by the addition of 0.3 μL of CFSE (10 mM), and reacted at 37° C. for 5 minutes. Subsequently, 10 mL of Free media was added to stop the reaction, and the cells were centrifuged to obtain the cell pellet. RPMI 1640 medium containing 10% FBS, 100 U/mL penicillin, and 100 μg/mL streptomycin was added to suspend the cells, and 2×10^5 cells per well were seeded into a 96-well plate and T cells were activated by treatment with CD3 and CD28 antibodies (each at 0.5 μg/mL).
The compound diluted in DMSO was treated in triplicate at concentrations of 10 μM, 30 μM, and 50 μM, respectively. After incubation at 37° C. with 5% CO2 for 3 days, cell proliferation levels were determined using a FACS Canto machine.
In the FACS graph of FIG. 1, the y-axis represents the quantity (number) of cells, while the x-axis represents the fluorescence level of the cells. […] This reduction in CFSE fluorescence results in a leftward shift along the x-axis in the graph. This indicates cell proliferation.
To collectively indicate the proliferation inhibition rate for the experimental results, the relative value of the proliferation amount after compound administration to the proliferation amount after CD3/CD28+DMSO administration was calculated. Subsequently, it was converted into an inhibition amount and expressed as a percentage, thereby determining the proliferation inhibition rate. Specifically, the proliferation inhibition rate was calculated as follows: […]

In data set [1] the test system is T lymphocyte cell line Jurkat E6-1. The experiment in a line: Cytotoxicity experiment (CCK-8, relative cell survival). The data set is classed as cell-based. The conditions noted are these: 24 hours, untreated cells = 100%. On the procedure:
To evaluate the cytotoxicity of the compound according to the present invention, the following experiment was conducted.
The T lymphocyte cell line Jurkat E6-1, purchased from the Korean Cell Line Bank, was cultured in RPMI-1640 medium comprising 10% FBS, 100 U/mL penicillin, and 100 μg/mL streptomycin. After culturing, the cells were harvested and centrifuged at 1,300 rpm for 5 minutes. After removal of the supernatant, the cells were resuspended in the same medium at a concentration of approximately 2.2×10^5 cells/mL, and 90 μL of the cell suspension was distributed per well into a 96-well plate (Costar 96 well cell culture plate, Corning). After treating 10 μL of each compound at different concentrations onto the respective wells of the plate, it was cultured for 24 hours at 37° C. in a 5% CO2 incubator. Subsequently, 10 μL of CCK-8 was added to each well, and it was cultured again for 2 hours at 37° C. in a 5% CO2 incubator. Absorbance was then measured at 450 nm to determine the relative cell survival rate compared to untreated cells, as shown in Table 4.
The values listed in Table 4 represent the relative cell survival rates in the groups treated with each compound at different concentrations, with the cell survival rate of untreated cells set as 100%.

Setting [2] is: Table 2, 10 μM, 3 days, relative to CD3/CD28+DMSO.
[3] abbreviates: Table 2, 30 μM, 3 days, relative to CD3/CD28+DMSO.
Where [4] appears, read: Table 2, 50 μM, 3 days, relative to CD3/CD28+DMSO.
The mark [5] stands for this setting: 72 h, Table 2, 10 μM, 3 days, relative to CD3/CD28+DMSO.
Setting [6] is: 72 h, Table 2, 30 μM, 3 days, relative to CD3/CD28+DMSO.
[7] abbreviates: 72 h, Table 2, 50 μM, 3 days, relative to CD3/CD28+DMSO.

Like-named read-outs stand apart in the source and are kept apart here.

With `CCCCCCCCCCCCNC(=O)c1ccccc1C(F)(F)F` [Compound 38], the results for the “Proliferation inhibition rate (%)” value with spleen T cells (setting [2]), in the data set with spleen T cells (setting [3]) and in the data set on spleen T cells (setting [4]) were 40%, 73% and 85%, respectively. In addition, the “Relative cell survival rate (%)” value in data set [1] (10 μM) was found to be 90%; in data set [1] (20 μM), 91%; in data set [1] (30 μM) it was 89%; in data set [1] (50 μM) it was 89%.

As for `CCCCCCCCCCCCNC(=O)c1ccccc1C(=O)c1ccc(Cl)cc1` [Compound 16], the inhibition at 10 µM with spleen T cells (setting [5]) was 0%. For the same molecule, the inhibition at 30 µM in the data set on spleen T cells (setting [6]) turned out to be 100%. The inhibition at 50 µM in the data set with spleen T cells (setting [7]) stood at 100%. The “Relative cell survival rate (%)” value is 121% in data set [1] (10 μM), 101% in data set [1] (20 μM), 92% in data set [1] (30 μM) and 85% in data set [1] (50 μM).

`CCCCNC(=O)c1ccccc1F` [Compound 81]: the inhibition at 10 µM in the data set on spleen T cells (Table 3 (compounds not belonging to Formula 1), 10 μM) came out at 0%. In the data set on spleen T cells (Table 3 (compounds not belonging to Formula 1), 30 μM), the inhibition at 30 µM was 2%. The inhibition at 50 µM in the data set on spleen T cells (Table 3 (compounds not belonging to Formula 1), 50 μM) was found to be 22%. Further, the “Relative cell survival rate (%)” value in data set [1] (10 μM) is on record as 103%; in data set [1] (20 μM), 105%; in data set [1] (30 μM) it was 107%; in data set [1] (50 μM) it was 108%.

For `CCCCCCCCCCCCNC(=O)Cc1ccccc1` [Compound 25], the inhibition at 10 µM in the data set with spleen T cells (setting [5]) amounted to 20%. Further, in the data set on spleen T cells (setting [6]), the inhibition at 30 µM was found to be 90%. The inhibition at 50 µM in the data set with spleen T cells (setting [7]) came out at 99%. Moreover, the “Relative cell survival rate (%)” value in data set [1] (10 μM) stood at 95%; in data set [1] (20 μM) it was 90%; in data set [1] (30 μM) it was 87%; in data set [1] (50 μM) it was 84%.

For `CCCCCCCCCCCCNC(=O)c1ccccc1I` [Compound 63], the inhibition at 10 µM with spleen T cells (setting [5]) was 30%. Moreover, in the data set on spleen T cells (setting [6]), the inhibition at 30 µM was found to be 78%. Moreover, the inhibition at 50 µM in the data set with spleen T cells (setting [7]) was 89%. The “Relative cell survival rate (%)” value in data set [1] (10 μM) amounted to 70%; in data set [1] (20 μM), 78%; in data set [1] (30 μM), 75%; in data set [1] (50 μM), 79%.

As for `CCCCCCCCCCCCNC(=O)c1cccnc1C(F)(F)F` [Compound 77], the “Proliferation inhibition rate (%)” value is listed as 24% in the data set on spleen T cells (setting [2]), 47% with spleen T cells (setting [3]) and 66% with spleen T cells (setting [4]). In addition, the “Relative cell survival rate (%)” value in data set [1] (10 μM) was 116%; in data set [1] (20 μM), 124%; in data set [1] (30 μM), 123%; in data set [1] (50 μM), 123%.

Consider `CCCCCCCCCCCCNC(=O)c1ccccc1Oc1ccccc1` [Compound 61], for which the inhibition at 10 µM in the data set on spleen T cells (setting [5]) worked out at 16%. Further, in the data set on spleen T cells (setting [6]), the inhibition at 30 µM stood at 86%. The inhibition at 50 µM with spleen T cells (setting [7]) is 98%. Further, the “Relative cell survival rate (%)” value in data set [1] (10 μM) is listed as 96%; in data set [1] (20 μM), 94%; in data set [1] (30 μM) it was 76%; in data set [1] (50 μM), 74%.

For the molecule `CCCCCCCCCCCCNC(=O)c1ccc(F)c(F)c1F` [Compound 55], in the data set with spleen T cells (setting [5]), the inhibition at 10 µM was 52%. Further, the inhibition at 30 µM in the data set with spleen T cells (setting [6]) came out at 82%. Further, the inhibition at 50 µM in the data set on spleen T cells (setting [7]) was 95%. Further, the “Relative cell survival rate (%)” value in data set [1] (10 μM) is given as 115%; in data set [1] (20 μM), 110%; in data set [1] (30 μM), 108%; in data set [1] (50 μM), 105%.

In the case of `CCCCCCCCCCCCNC(=O)c1ccncc1Cl` [Compound 12], the inhibition at 10 µM in the data set with spleen T cells (setting [5]) is 5%. In the data set on spleen T cells (setting [6]), the inhibition at 30 µM was 38%. The inhibition at 50 µM with spleen T cells (setting [7]) is 99%. The “Relative cell survival rate (%)” value turned out to be 100% in data set [1] (10 μM), 92% in data set [1] (20 μM), 83% in data set [1] (30 μM) and 79% in data set [1] (50 μM).

`CCCCCCCCCCCCNC(=O)c1c(Cl)cccc1Cl` [Compound 39]: the inhibition at 10 µM in the data set on spleen T cells (setting [5]) stood at 7%. Besides, the inhibition at 30 µM in the data set with spleen T cells (setting [6]) was determined as 61%. Also, in the data set with spleen T cells (setting [7]), the inhibition at 50 µM was determined as 89%. Further, the “Relative cell survival rate (%)” value in data set [1] (10 μM) is 89%; in data set [1] (20 μM), 102%; in data set [1] (30 μM) it was 78%; in data set [1] (50 μM) it was 79%.

For the molecule `CCCCCCCCCCCCNC(=O)c1ccccc1-c1ncc[nH]1` [Compound 52], the inhibition at 10 µM in the data set on spleen T cells (setting [5]) was 42%. The inhibition at 30 µM in the data set on spleen T cells (setting [6]) worked out at 95%. Besides, the inhibition at 50 µM in the data set with spleen T cells (setting [7]) was found to be 100%. Moreover, the “Relative cell survival rate (%)” value in data set [1] (10 μM) was 88%; in data set [1] (20 μM), 85%; in data set [1] (30 μM), 84%; in data set [1] (50 μM) it was 84%.

For `CCCCCCCCCCCCNC(=O)c1ccccc1NC` [Compound 65], in the data set with spleen T cells (setting [5]), the inhibition at 10 µM was found to be 39%. For the same molecule, in the data set with spleen T cells (setting [6]), the inhibition at 30 µM is 43%. The inhibition at 50 µM with spleen T cells (setting [7]) was 77%. The “Relative cell survival rate (%)” value worked out at 87% in data set [1] (10 μM), 84% in data set [1] (20 μM), 86% in data set [1] (30 μM) and 77% in data set [1] (50 μM).

Regarding `CCCCCCCCCCCCNC(=O)c1cccnc1Nc1cccc(C(F)(F)F)c1` [Compound 33], in the data set with spleen T cells (setting [5]), the inhibition at 10 µM is 33%. Also, the inhibition at 30 µM with spleen T cells (setting [6]) worked out at 100%. Moreover, the inhibition at 50 µM with spleen T cells (setting [7]) was 100%. In addition, the “Relative cell survival rate (%)” value in data set [1] (10 μM) came to 100%; in data set [1] (20 μM), 91%; in data set [1] (30 μM), 79%; in data set [1] (50 μM), 70%.

On to `CCCCCCCCCCCCNC(=O)c1cccnn1` [Compound 31], for which the inhibition at 10 µM in the data set on spleen T cells (setting [5]) was 15%. Also, the inhibition at 30 µM with spleen T cells (setting [6]) is 57%. The inhibition at 50 µM in the data set with spleen T cells (setting [7]) stood at 69%. Further, the “Relative cell survival rate (%)” value in data set [1] (10 μM) is recorded as 111%; in data set [1] (20 μM), 111%; in data set [1] (30 μM), 102%; in data set [1] (50 μM), 102%.

With `CCCCCCCCCCCCNC(=O)c1ncccc1Br` [Compound 73], in the data set on spleen T cells (setting [5]), the inhibition at 10 µM came out at 32%. Also, in the data set with spleen T cells (setting [6]), the inhibition at 30 µM stood at 76%. Also, in the data set on spleen T cells (setting [7]), the inhibition at 50 µM was 86%. Further, the “Relative cell survival rate (%)” value in data set [1] (10 μM) came to 94%; in data set [1] (20 μM), 97%; in data set [1] (30 μM), 98%; in data set [1] (50 μM), 104%.

With `CCCCCCCCCCCCNC(=O)c1ccncc1N` [Compound 68], in the data set on spleen T cells (setting [5]), the inhibition at 10 µM is 57%. Besides, the inhibition at 30 µM with spleen T cells (setting [6]) stood at 67%. Besides, the inhibition at 50 µM in the data set with spleen T cells (setting [7]) came out at 100%. Moreover, the “Relative cell survival rate (%)” value is reported as 92% in data set [1] (10 μM), 91% in data set [1] (20 μM), 88% in data set [1] (30 μM) and 82% in data set [1] (50 μM).

For `CCCCCCCCCCCCNS(=O)(=O)c1ccccc1[N+](=O)[O-]` [Compound 58], in the data set on spleen T cells (setting [5]), the inhibition at 10 µM amounted to 39%. The inhibition at 30 µM in the data set with spleen T cells (setting [6]) stood at 51%. The inhibition at 50 µM with spleen T cells (setting [7]) is 68%. For the same molecule, the “Relative cell survival rate (%)” value in data set [1] (10 μM) amounted to 100%; in data set [1] (20 μM) it was 98%; in data set [1] (30 μM), 97%; in data set [1] (50 μM), 94%.
